Data reported in PMC11594175 (2024).

Tested on: HD3 with inactivated substrate (rA to dA at cleavage site) (DNA, ribozyme, dA in place of rA at the cleavage site of the substrate strand) CATCTCTTAACGGGGCTGTGCGGCTAGGAAGTAATAGTGAG/CTCACTATAGGAAGAGATG
Test: CD titration at 267 nm
Settings: 500 mM Na+ (NaCl), 500 mM K+ (KCl), no Mg2+; 50 mM HEPES pH 7.5, 0.5 mM EDTA, 25 °C; 30 µM DNA; 0-10 mM histidine

Q: `N[C@@H](Cc1cnc[nH]1)C(=O)O` was tested. Which “Ka(CD)” value did it give?
A: Its value is ~ 2.0 × 10^3 M^-1.
